# Read-outs that look alike come from different tables or passages of the source.
# Assays:
# Assay type in all cases: cell-based
# K. Pneumoniae A-651 = assay: Bacterial growth minimal inhibitory concentration (broth microdilution, CLSI M7-A7); conditions: cation-adjusted Mueller Hinton Broth, multiply-resistant (quinolone-resistant) strain; for MIC: Klebsiella pneumoniae
# Description: (§1) Minimal Inhibitory Concentrations (MICs; mg/L) were determined in cation-adjusted MuellerHinton Broth by a microdilution method following the description given in “Methods for Dilution Antimicrobial Susceptibility Tests for Bacteria that grow Aerobically”, Approved standard, 7th ed., Clinical and Laboratory Standards Institute (CLSI) Document M7-A7, Wayne, Pa., USA (2006).
# (§2) All Example compounds were tested against several Gram-positive and Gram-negative bacteria. […] K pneumoniae A-651 is a multiply-resistant strain (in particular quinolone-resistant), while E. coli ATCC25922 and P. aeruginosa ATCC27853 are quinolone-sensitive strains.
# P. aeruginosa ATCC27853 = assay: as above; conditions: quinolone-sensitive strain; for MIC: Pseudomonas aeruginosa, ATCC27853, cation-adjusted Mueller Hinton Broth; for MIC for P. aeruginosa ATCC27853: cation-adjusted Mueller Hinton Broth
# Description: as §1, §2
# E. coli ATCC25922 = assay: as above; conditions: quinolone-sensitive strain; for MIC: Escherichia coli, ATCC25922, cation-adjusted Mueller Hinton Broth; for MIC for E. coli ATCC25922: cation-adjusted Mueller Hinton Broth
# Description: as §1, §2
# wild-type E. coli A-1261 = assay: MIC with or without alkaline phosphatase or esterase (prodrug activation); conditions: Escherichia coli
# Description: Minimal Inhibitory Concentrations (MICs; mg/L) were determined in cation-adjusted MuellerHinton Broth by a microdilution method following the description given in “Methods for Dilution Antimicrobial Susceptibility Tests for Bacteria that grow Aerobically”, Approved standard, 7th ed., Clinical and Laboratory Standards Institute (CLSI) Document M7-A7, Wayne, Pa., USA (2006). The compounds of Examples 5 and 12 were tested against wild-type E. coli A-1261 in the absence of alkaline phosphatase or esterase, in the presence of an alkaline phosphatase, and in the presence of an esterase. The corresponding antibacterial test results are given in Table 2 hereafter (MICs in mg/L).
# [1] = alkaline phosphatase 2 i.U./mL, read-out: MIC for E. coli A-1261 In the presence of an alkaline phosphatase (2 i.U./mL)
# [2] = esterase 10 i.U./mL, read-out: MIC for E. coli A-1261 In the presence of an esterase (10 i.U./mL)
# [3] = no alkaline phosphatase or esterase, read-out: MIC for E. coli A-1261 In the absence of alkaline phosphatase or esterase
SMILES,MIC (K. Pneumoniae A-651) [µg/mL],MIC (P. aeruginosa ATCC27853) [µg/mL],MIC (E. coli ATCC25922) [µg/mL],MIC (wild-type E. coli A-1261; [1]) [µg/mL],MIC (wild-type E. coli A-1261; [2]) [µg/mL],MIC (wild-type E. coli A-1261; [3]) [µg/mL],MIC for K. Pneumoniae A-651 (K. Pneumoniae A-651) [µg/mL],MIC for P. aeruginosa ATCC27853 (P. aeruginosa ATCC27853) [µg/mL],MIC for E. coli ATCC25922 (E. coli ATCC25922) [µg/mL]
"C[C@@](CCn1c(=O)sc2cc(C#CC#C[C@H]3C[C@]3(F)CO)ccc21)(C(=O)NO)S(C)(=O)=O [Example 11, (2R)-4-(6-(((1R,2R)-2-fluoro-2-(hydroxymethyl)cyclopropyl)buta-1,3-diyn-1-yl)-2-oxobenzo[d]thiazol-3(2H)-yl)-N-hydroxy-2-methyl-2-(methylsulfonyl)butanamide]",0.25,1,0.063,,,,,,
C[C@@](CCn1c(=O)sc2cc(C#Cc3ccc(CO)cc3)ccc21)(C(=O)NO)S(C)(=O)=O [Example 13],,,,,,,0.5,8,0.125
"COc1ccc(-c2ccc3c(c2)oc(=O)n3CCC(C)(C(=O)NO)S(C)(=O)=O)c(F)c1 (racemic) [RE1, (2RS)-4-(6-(2-fluoro-4-methoxyphenyl)-2-oxobenzo[d]oxazol-3(2H)-yl)-N-hydroxy-2-methyl-2-(methylsulfonyl)butanamide]",1,> 8,2,,,,,,
C[C@@](CCn1c(=O)oc2cc(C#Cc3ccc(CO)cc3)ccc21)(C(=O)NO)S(C)(=O)=O [Example 1],,,,,,,0.5,4,0.25
C[C@@](CCn1c(=O)oc2cc(C#Cc3ccc(CN4CCOCC4)cc3)ccc21)(C(=O)NO)S(C)(=O)=O [Example 3],,,,,,,2,>8,2
"C[C@@](CCn1c(=O)oc2cc(C#CC#CC3(CO)CC3)ccc21)(C(=O)NO)S(C)(=O)=O [Example 2, (2R)—N-hydroxy-4-(6-((1-(hydroxymethyl)cyclopropyl)buta4,3-diyn-1-yl)-2-oxobenzo[d]oxazol-3(2H)-yl)-2-methyl-2-(methylsulfonyl)butanamide]",,,,,,,1,1,0.25

# More lines, main results first:
MIC (K. Pneumoniae A-651) [µg/mL],MIC (P. aeruginosa ATCC27853) [µg/mL],MIC (E. coli ATCC25922) [µg/mL],MIC (wild-type E. coli A-1261; [1]) [µg/mL],MIC (wild-type E. coli A-1261; [2]) [µg/mL],MIC (wild-type E. coli A-1261; [3]) [µg/mL],SMILES,MIC for K. Pneumoniae A-651 (K. Pneumoniae A-651) [µg/mL],MIC for P. aeruginosa ATCC27853 (P. aeruginosa ATCC27853) [µg/mL],MIC for E. coli ATCC25922 (E. coli ATCC25922) [µg/mL]
1,1,0.5,,,,"C[C@@](CCn1c(=O)oc2cc(C#CC#CCOC(=O)N3CC(O)C3)ccc21)(C(=O)NO)S(C)(=O)=O [Example 7, (3R)-5-(3-(4-(hydroxyamino)-3-methyl-3-(methylsulfonyl)-4-oxobutyl)-2-oxo-2,3-dihydrobenzo[d]oxazol-6-yl)penta-2,4-diyn-1-yl 3-hydroxyazetidine-1-carboxylate]",,,
1,2,0.5,,,,"CN1CC(C#CC#Cc2ccc3c(c2)sc(=O)n3CC[C@](C)(C(=O)NO)S(C)(=O)=O)C1 [Example 10, (2R)—N-hydroxy-2-methyl-4-(6-((1-methylazetidin-3-yl)buta-1,3-diyn-1-yl)-2-oxobenzo[d]thiazol-3(2H)-yl)-2-(methylsulfonyl)butanamide]",,,
0.125,0.5,0.063,0.063,0.063,0.063,"C[C@@](CCn1c(=O)oc2cc(C#CC#C[C@H]3C[C@@H]3CO)ccc21)(C(=O)NO)S(C)(=O)=O [Example 5, (2R)—N-hydroxy-4-(6-(((1S,2S)-2-(hydroxymethyl)cyclopropyl)buta-1,3-diyn-1-yl)-2-oxobenzo[d]oxazol-3 (2H)-yl)-2-methyl-2-(methylsulfonyl)butanamide]",,,
0.25,1,0.125,,,,"C[C@@](CCn1c(=O)oc2cc(C#CC#CC3(N)CC3)ccc21)(C(=O)NO)S(C)(=O)=O [Example 8, (2R)-4-(6-((1-aminocyclopropyl)buta-1,3-diyn-1-yl)-2-oxobenzo[d]oxazol-3(2H)-yl)-N-hydroxy-2-methyl-2-(methylsulfonyl)butanamide]",,,
8,> 8,4,,,,"CC(CCn1c(=O)oc2cc(C#CC#CC3(O)COC3)ccc21)(C(=O)NO)S(C)(=O)=O (racemic) [RE2, (2RS)—N-hydroxy-4-(6-((3-hydroxyoxetan-3-yl)buta-1,3-diyn-1-yl)-2-oxobenzo[d]oxazol-3(2H)-yl)-2-methyl-2-(methylsulfonyl)butanamide]",,,
,,,0.125,> 8,> 8,"C[C@@](CCn1c(=O)oc2cc(C#CC#C[C@H]3C[C@@H]3COP(=O)(O)O)ccc21)(C(=O)NO)S(C)(=O)=O [Example 12, ((1S,2S)-2-((3-((3R)-4-(hydroxyamino)-3-methyl-3-(methylsulfonyl)-4-oxobutyl)-2-oxo-2,3-dihydrobenzo[d]oxazol-6-yl)buta-1,3-diyn-1-yl)cyclopropyl)methyl dihydrogen phosphate]",,,
0.25,1,0.25,,,,"CNC1(C#CC#Cc2ccc3c(c2)oc(=O)n3CC[C@](C)(C(=O)NO)S(C)(=O)=O)CC1 [Example 4, (2R)—N-hydroxy-2-methyl-4-(6-((1-(methylamino)cyclopropyl)buta-1,3-diyn-1-yl)-2-oxobenzo[d]oxazol-3(2H)-yl)-2-(methylsulfonyl)butanamide]",,,
0.25,0.5,0.125,,,,"C[C@@](CCn1c(=O)oc2cc(C#CC#C[C@H]3C[C@]3(F)CO)ccc21)(C(=O)NO)S(C)(=O)=O [Example 6, (2R)-4-(6-(((1R,2R)-2-fluoro-2-(hydroxymethyl)cyclopropyl)buta-1,3-diyn-1-yl)-2-oxobenzo[d]oxazol-3(2H)-yl)-N-hydroxy-2-methyl-2-(methylsulfonyl)butanamide]",,,
0.5,1,1,,,,"CN1CC(C#CC#Cc2ccc3c(c2)oc(=O)n3CC[C@](C)(C(=O)NO)S(C)(=O)=O)C1 [Example 9, (2R)—N-hydroxy-2-methyl-4-(6-((1-methylazetidin-3-yl)buta-1,3-diyn-1-yl)-2-oxobenzo[d]oxazol-3(2H)-yl)-2-(methylsulfonyl)butanamide]",,,

# Source: patent US20180251434A1, “ANTIBACTERIAL HETEROCYCLIC DERIVATIVES” (priority 2015, published 2018)
